Laboratory results as given in US20230131899A1, “INHIBITORS OF MICROBIALLY INDUCED AMYLOID” (Axial Therapeutics, Inc., priority 2020, published 2023).
Where two headings read alike, the source gives them in different places. Blank lines part the entries; values can stand above or below the compound they belong to.

How the values were obtained:
E. coli CsgA = target: T1, E. coli CsgA (Escherichia coli, UniProt P28307); test: In vitro ThioflavinT assay of CsgA aggregation (CsgA ThT Assay); assay type: biochemical; conditions: for remaining activity at 100 µM: compound 100 μM
T1 construct: made in house; host or cells: E. coli NEB 3016 slyD::kan, pET11d
Procedure, shortened: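 Purified C-terminal His-tagged CsgA, monomerised by desalting and 30-kDa filtration, at 2-20 μM with 20-40 μM ThT in 50 mM potassium phosphate pH 7.3, 1% DMSO, compounds 3.125-200 uM; room temperature, fluorescence (ex 438/em 495 nm) read every 15 min. Background-subtracted signal expressed as percent inhibition versus vehicle at 6-6.5 or 8-9 h, or as percent control AUC.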

human α-synuclein = target: T2, human α-synuclein (Homo sapiens, UniProt P37840); test: Cell-free Thioflavin T assay of α-synuclein aggregation (αSyn ThT Assay); assay type: biochemical; conditions: αSyn 50 μM
T2 construct: the full-length gene for untagged human α-synuclein was inserted; made in house; host or cells: E. coli BL21(DE3), plasmid derived from pT7 or pET11a
Experimental: To assess the effects of compounds on aggregation of α-synuclein, a cell-free assay was performed using purified α-synuclein and Thioflavin T. In the assay, human α-synuclein was expressed in E. coli BL21(DE3) from a plasmid derived from pT7 or pET11a into which the full-length gene for untagged human α-synuclein was inserted. Cells were induced at OD600 0.6 with 0.8 mM IPTG for 4 hours, harvested by centrifugation and suspended in a volume of lysis buffer (10 mM Tris, pH 8.0, 1 mM EDTA, and 1 mM PMSF) equivalent to one-tenth the volume of culture and lysed by boiling for 20 minutes. Cell debris was pelleted by centrifugation, clarified lysate was treated with 10% streptomycin sulfate at 136 μL/mL followed by glacial acetic acid at 228 μL/mL, lysate was centrifuged, supernatant was transferred to a fresh tube and protein was precipitated via addition of an equal volume of saturated (100%) ammonium sulfate and incubated at 4° C. on a rocking shaker for 1 hour. The protein was pelleted via centrifugation and washed with an equal volume of 100 mM ammonium acetate in chilled ethanol, pelleted via centrifugation, washed twice with chilled ethanol, dried overnight, resuspended in 50 mM potassium phosphate buffer pH 7.3 or 10 mM Tris pH 7.4, and passed through a 50 kDa cut-off column. Immediately prior to use, the purified α-synuclein was filtered with a 0.2 μm nylon filter. The assay was conducted in 96-well black microplates with a single 1-2 mm glass bead in each well, 20-40 μM ThioflavinT, 1% DMSO, α-synuclein at 50 μM and compounds at 20-100 μM. Plates were sealed with sealing tape (ThermoFisher 232701), incubated at 37° C. in a Tecan Nano F200 plate reader with excitation at 438 nm using a 439 nm filter with a bandwidth of 8 nm, and emission at 495 nm with a 490 nm filter with a bandwidth of 10 nm. During the assay, plates were shaken continuously or were shaken for 999 seconds every 18 minutes. Readings were performed hourly for up to 73 hours. The effect of compounds on α-synuclein aggregation in the assay was determined with data at 36, 47, 48 or 72 hours or from the final timepoint of the assay, prior to or roughly near the time when ThT fluorescence plateaued in the vehicle control wells. The vehicle controls contained all components of the assay except compounds and represented the level of α-synuclein aggregation in the absence of an inhibitor or accelerator. Fluorescence values for each compound with α-synuclein were first adjusted by subtracting the average fluorescence of the compound in the absence of α-synuclein. These adjusted values were normalized by dividing them by the average fluorescence at the same timepoint in the vehicle control wells, and the average normalized fluorescence with the compound was expressed as a percentage of the average fluorescence observed in untreated controls. Percent inhibition of α-synuclein aggregation by a compound was determined by subtracting the percent average fluorescence with the compound relative to the average vehicle control from 100%. A higher positive percent inhibition reflects greater inhibition of α-synuclein aggregation, while a negative percent inhibition reflects potentiation of α-synuclein aggregation.
Alternate concentrations of Thioflavin T may be used in the assay and may affect the fluorescent signal and sensitivity of the assay. Alternate concentrations of α-synuclein may be used and such alterations may affect aggregation kinetics of α-synuclein in the assay. Alternate concentrations of compounds may be tested in the assay, and dose-responses may be evaluated. Additional reagents may be added to the assay which may affect aggregation kinetics of α-synuclein depending on their concentration, including detergents such as sodium dodecyl sulfate, sodium chloride, dithiotreitol, or bovine serum albumin. Shaking may be included at alternate intervals in the assay and may affect α-synuclein aggregation kinetics. […]

[1] = read-out: CsgA ThT Assay (2 μM CsgA) % Control Bmax 25 μM, activity range, class symbol, CsgA 2 μM, white plates, compound 25 μM
[2] = read-out: CsgA ThT Assay (2 μM CsgA) % Control Bmax 25 μM, mean Bmax as percentage of DMSO control, CsgA 2 μM, white plates, compound 25 μM
[3] = read-out: CsgA ThT Assay (2 μM CsgA) % Control Bmax 100 μM, activity range, class symbol, CsgA 2 μM, white plates
[4] = read-out: CsgA ThT Assay (2 μM CsgA) % Control Bmax 100 μM, mean Bmax as percentage of DMSO control, CsgA 2 μM, white plates
[5] = class symbol, compounds 100 μM, read-out: αSyn ThT Assay % inhibition, activity range
[6] = mean percent inhibition relative to DMSO control, compounds 100 μM, read-out: αSyn ThT Assay % inhibition
[7] = read-out: CsgA ThT Assay (10 μM CsgA) % Control AUC at 1005 minutes, 100 μM (activity range), CsgA 10 μM, black plates, 1005 minutes, class symbol
[8] = read-out: CsgA ThT Assay (10 μM CsgA) % Control AUC at 1005 minutes, 100 μM, mean AUC as % of DMSO control, CsgA 10 μM, black plates, 1005 minutes
[9] = mean % inhibition of αSyn aggregation relative to DMSO control, compounds at 100 μM, read-out: αSyn ThT Assay % Inhibition
[10] = compounds at 100 μM, class symbol, read-out: αSyn ThT Assay % Inhibition (activity range)

T1 sequence (P28307 23-151): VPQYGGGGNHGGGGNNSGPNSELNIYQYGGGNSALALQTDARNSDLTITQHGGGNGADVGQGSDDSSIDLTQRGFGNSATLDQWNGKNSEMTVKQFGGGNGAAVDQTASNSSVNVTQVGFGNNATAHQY

SMILES: COc1cccc(CN2CC(C(=O)O)n3c2c(-c2cccc(C(F)(F)F)c2)c(Cc2cccc4ccccc24)c(Cl)c3=O)c1 (centres unmarked) [Compound 191, 6-chloro-1-(3-methoxybenzyl)-7-(naphthalen-1-ylmethyl)-5-oxo-8-(3-(trifluoromethyl)phenyl)-1,2,3,5-tetrahydroimidazo[1,2-a]pyridine-3-carboxylic acid]
remaining activity at 25 µM (E. coli CsgA; [1]): 31 to 60% | remaining activity at 25 µM (E. coli CsgA; [2]): 58% | remaining activity at 100 µM (E. coli CsgA; [3]): 31 to 60% | remaining activity at 100 µM (E. coli CsgA; [4]): 43% | inhibition at 100 µM (human α-synuclein; [5]): 31 to 60% | inhibition at 100 µM (human α-synuclein; [6]): 55%

SMILES: CC(C)CNC(=O)c1c(Cc2cccc3ccccc23)c(-c2cccc(C(F)(F)F)c2)c2n(c1=O)C(C(=O)O)CN(C)S2(=O)=O (centres unmarked) [Compound 159, 7-(isobutylcarbamoyl)-2-methyl-8-(naphthalen-1-ylmethyl)-6-oxo-9-(3-(trifluoromethyl)phenyl)-3,4-dihydro-2H,6H-pyrido[1,2-e][1,2,5]thiadiazine-4-carboxylic acid 1,1-dioxide]
remaining activity at 25 µM (E. coli CsgA; [1]): > 60% | remaining activity at 25 µM (E. coli CsgA; [2]): 64% | remaining activity at 100 µM (E. coli CsgA; [3]): > 60% | remaining activity at 100 µM (E. coli CsgA; [4]): 76% | inhibition at 100 µM (human α-synuclein; [5]): > 60% | inhibition at 100 µM (human α-synuclein; [6]): 83%

SMILES: O=C(O)C1CS(=O)(=O)c2c(-c3cccc(C(F)(F)F)c3)c(Cc3cccc4ccccc34)cc(=S)n21 (single isomer, unassigned) [Compound 014a, 7-(naphthalen-1-ylmethyl)-5-thioxo-8-(3-(trifluoromethyl)phenyl)-2,3-dihydro-5H-thiazolo[3,2-a]pyridine-3-carboxylic acid 1,1-dioxide]
CsgA ThT Assay (10 μM CsgA) % Control AUC at 1005 minutes, 25 μM (activity range) (E. coli CsgA; CsgA 10 μM, black plates, compound 25 μM, 1005 minutes, class symbol): (++) (% control AUC of 31 to 60%) | CsgA ThT Assay (10 μM CsgA) % Control AUC at 1005 minutes, 25 μM (E. coli CsgA; mean AUC as % of DMSO control, CsgA 10 μM, black plates, compound 25 μM, 1005 minutes): 37% | remaining activity at 100 µM (E. coli CsgA; [7]): 11 to 31% | remaining activity at 100 µM (E. coli CsgA; [8]): 29% | inhibition at 100 µM (human α-synuclein; [9]): 68% | inhibition at 100 µM (human α-synuclein; [10]): > 60%

SMILES: O=C(O)c1csc2c(-c3cccc(C(F)(F)F)c3)c(Cc3cccc4ccccc34)cc(=O)n12 [Compound 019, 7-(naphthalen-1-ylmethyl)-5-oxo-8-(3-(trifluoromethyl)phenyl)-5H-thiazolo[3,2-a]pyridine-3-carboxylic acid]
remaining activity at 25 µM (E. coli CsgA; read-out: CsgA ThT Assay (10 μM CsgA) % Control AUC at 1005 minutes, 25 μM (activity range), CsgA 10 μM, black plates, compound 25 μM, 1005 minutes, class symbol): > 60% | remaining activity at 25 µM (E. coli CsgA; read-out: CsgA ThT Assay (10 μM CsgA) % Control AUC at 1005 minutes, 25 μM, mean AUC as % of DMSO control, CsgA 10 μM, black plates, compound 25 μM, 1005 minutes): 69% | remaining activity at 100 µM (E. coli CsgA; [7]): > 60% | remaining activity at 100 µM (E. coli CsgA; [8]): 104% | inhibition at 100 µM (human α-synuclein; [9]): 41% | inhibition at 100 µM (human α-synuclein; [10]): 31 to 60%

SMILES: O=C(O)C1CNS(=O)(=O)c2c(-c3cccc(C(F)(F)F)c3)c(Cc3cccc4ccccc34)c(NC3CCCC3)c(=O)n21 (centres unmarked) [Compound 005, 7-(cyclopentylamino)-8-(naphthalen-1-ylmethyl)-6-oxo-9-(3-(trifluoromethyl)phenyl)-3,4-dihydro-2H,6H-pyrido[1,2-e][1,2,5]thiadiazine-4-carboxylic acid 1,1-dioxide]
remaining activity at 25 µM (E. coli CsgA; [1]): > 60% | remaining activity at 25 µM (E. coli CsgA; [2]): 66% | remaining activity at 100 µM (E. coli CsgA; [3]): 11 to 31% | remaining activity at 100 µM (E. coli CsgA; [4]): 20% | inhibition at 100 µM (human α-synuclein; [5]): 31 to 60% | inhibition at 100 µM (human α-synuclein; [6]): 48%

SMILES: CCCN1CC(C(=O)O)n2c(c(-c3cccc(C(F)(F)F)c3)c(Cc3cccc4ccccc34)c(N3CCCC3=O)c2=O)S1(=O)=O (centres unmarked) [Compound 151, 8-(naphthalen-1-ylmethyl)-6-oxo-7-(2-oxopyrrolidin-1-yl)-2-propyl-9-(3-(trifluoromethyl)phenyl)-3,4-dihydro-2H,6H-pyrido[1,2-e][1,2,5]thiadiazine-4-carboxylic acid 1,1-dioxide]
remaining activity at 25 µM (E. coli CsgA; [1]): > 60% | remaining activity at 25 µM (E. coli CsgA; [2]): 67% | remaining activity at 100 µM (E. coli CsgA; [3]): > 60% | remaining activity at 100 µM (E. coli CsgA; [4]): 73% | inhibition at 100 µM (human α-synuclein; [5]): > 60% | inhibition at 100 µM (human α-synuclein; [6]): 61%

SMILES: O=C(O)C1CS(=O)(=O)c2c(-c3cccc(C(F)(F)F)c3)c(Cc3cccc4ccccc34)cc(=S)n21 (racemic) [Compound 014, 7-(naphthalen-1-ylmethyl)-5-thioxo-8-(3-(trifluoromethyl)phenyl)-2,3-dihydro-5H-thiazolo[3,2-a]pyridine-3-carboxylic acid 1,1-dioxide]
inhibition at 100 µM (human α-synuclein; [9]): 35% | inhibition at 100 µM (human α-synuclein; [10]): 31 to 60%

inhibition at 100 µM (human α-synuclein; [9]): 13% | inhibition at 100 µM (human α-synuclein; [10]): 11 to 30%
SMILES: O=C(O)C1CS(=O)(=O)c2c(-c3cccc(C(F)(F)F)c3)c(Cc3cccc4ccccc34)cc(=O)n21 (racemic) [Compound 010, 7-(naphthalen-1-ylmethyl)-5-oxo-8-(3-(trifluoromethyl)phenyl)-2,3-dihydro-5H-thiazolo[3,2-a]pyridine-3-carboxylic acid 1,1-dioxide]

inhibition at 100 µM (human α-synuclein; [9]): 28% | inhibition at 100 µM (human α-synuclein; [10]): 11 to 30%
SMILES: O=C(O)C1CNS(=O)(=O)c2c(-c3cccc(C(F)(F)F)c3)c(Cc3cccc4ccccc34)cc(=O)n21 (racemic) [Compound 009, 8-(naphthalen-1-ylmethyl)-6-oxo-9-(3-(trifluoromethyl)phenyl)-3,4-dihydro-2H,6H-pyrido[1,2-e][1,2,5]thiadiazine-4-carboxylic acid 1,1-dioxide]

SMILES: CN1CC(C(=O)O)n2c(c(-c3cccc(C(F)(F)F)c3)c(Cc3cccc4ccccc34)cc2=O)S1(=O)=O (single isomer, unassigned) [Compound 008b, 2-methyl-8-(naphthalen-1-ylmethyl)-6-oxo-9-(3-(trifluoromethyl)phenyl)-3,4-dihydro-2H,6H-pyrido[1,2-e][1,2,5]thiadiazine-4-carboxylic acid 1,1-dioxide]
αSyn ThT Assay % Inhibition (human α-synuclein; mean % inhibition of αSyn aggregation relative to DMSO control, compounds at 100 μM): 10% | αSyn ThT Assay % Inhibition (activity range) (human α-synuclein; compounds at 100 μM, class symbol): (−) ((−) represents −10 to 10)
